Data published in patent US12624034B2, “Non-covalent modifiers of AKT1 and uses thereof” (Terremoto Biosciences, Inc., priority 2023, dated 2026).

What was measured:
AKT2 = target: T1, AKT2 (Homo sapiens, UniProt P31751); assay: Live cell AKT2 target engagement by NanoBRET competitive probe displacement in HEK293 cells; format: binding; details: NanoBRET live cell target engagement, HEK293 cells, 2 h at 37° C.; read-out: AKT2 IC50
T1 construct: expressed in transfected cells; host or cells: HEK293

AKT1 WT = target: T2, AKT1 WT (Homo sapiens, UniProt P31749); assay: Live cell AKT1 WT target engagement by NanoBRET competitive probe displacement in HEK293 cells; format: binding; details: NanoBRET live cell target engagement, HEK293 cells, 2 h at 37° C.; read-out: AKT1 WT IC50
T2 construct: expressed in transfected cells; host or cells: HEK293
T2 sequence (P31749 whole entry): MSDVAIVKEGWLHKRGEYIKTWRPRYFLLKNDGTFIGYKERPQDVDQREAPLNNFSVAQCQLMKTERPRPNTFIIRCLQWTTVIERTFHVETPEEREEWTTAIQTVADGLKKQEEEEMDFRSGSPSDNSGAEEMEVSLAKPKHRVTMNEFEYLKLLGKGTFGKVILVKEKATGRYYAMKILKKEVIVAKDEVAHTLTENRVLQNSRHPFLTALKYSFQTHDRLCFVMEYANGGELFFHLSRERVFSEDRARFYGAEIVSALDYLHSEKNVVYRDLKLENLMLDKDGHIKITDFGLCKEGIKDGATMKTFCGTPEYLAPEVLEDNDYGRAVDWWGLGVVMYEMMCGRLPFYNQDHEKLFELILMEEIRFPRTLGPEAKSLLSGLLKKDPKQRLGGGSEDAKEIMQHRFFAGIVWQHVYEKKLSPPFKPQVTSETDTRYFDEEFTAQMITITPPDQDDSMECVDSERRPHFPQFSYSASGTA

T1 sequence (P31751 whole entry): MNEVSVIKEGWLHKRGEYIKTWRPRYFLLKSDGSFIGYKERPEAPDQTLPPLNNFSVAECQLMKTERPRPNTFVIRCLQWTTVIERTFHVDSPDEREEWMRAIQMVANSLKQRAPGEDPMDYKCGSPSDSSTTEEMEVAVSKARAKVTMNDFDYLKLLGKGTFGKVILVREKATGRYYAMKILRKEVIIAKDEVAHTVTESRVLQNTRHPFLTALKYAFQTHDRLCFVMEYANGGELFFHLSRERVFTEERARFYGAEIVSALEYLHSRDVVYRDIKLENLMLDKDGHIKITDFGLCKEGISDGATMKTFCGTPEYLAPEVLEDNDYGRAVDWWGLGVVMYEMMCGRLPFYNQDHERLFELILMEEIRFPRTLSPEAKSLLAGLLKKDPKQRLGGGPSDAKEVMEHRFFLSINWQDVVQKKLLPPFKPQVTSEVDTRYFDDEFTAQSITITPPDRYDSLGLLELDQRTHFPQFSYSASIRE

SMILES | IC50 (AKT2) | IC50 (AKT1 WT)
CC(C)(O)c1cn([C@H]2CCc3cc(-n4c(-c5cccnc5N)nc5ccc(-n6cccn6)nc54)ccc32)nn1 [Compound 219] | 6640 nM | 119 nM
Nc1ncccc1-c1nc2ccc(-n3cccn3)nc2n1-c1ccc2c(c1)CC[C@@H]2n1cc(C2COC2)nn1 [Compound 220] | 6260 nM | 68.2 nM
Cn1nccc1Cc1nncn1[C@H]1CCc2cc(-n3c(-c4cccnc4N)nc4ccc(-n5cccn5)nc43)ccc21 [Compound 222] | 1400 nM | 146 nM
Cc1ccc(C(=O)N[C@H]2CCc3cc(-n4c(-c5cccnc5N)nc5ccc(-c6ncco6)nc54)ccc32)cn1 [Compound 223] | 586 nM | 38.7 nM
Nc1ncccc1-c1nc2ccc(-n3cccn3)nc2n1-c1ccc2c(c1)CC[C@@H]2NC(=O)c1cnc2c(c1)CC(=O)N2 [Compound 224] | 342 nM | 32.1 nM
Nc1ncccc1-c1nc2ccc(C#CC3CCC3)nc2n1-c1ccc2c(c1)CC[C@@H]2NC(=O)c1ccc(C(F)F)nc1 [Compound 226] | 2020 nM | 45.5 nM
Nc1ncccc1-c1nc2ccc(-n3cccn3)nc2n1-c1ccc2c(c1)CC[C@H]2n1ccnn1 [Compound 227] | > 10000 nM | > 1000 nM
Cn1cc(Cc2nncn2[C@H]2CCc3cc(-n4c(-c5cccnc5N)nc5ccc(-n6cccn6)nc54)ccc32)cn1 [Compound 228] | 2030 nM | 586 nM
Cc1ncccc1C(=O)N[C@H]1CCc2cc(-n3c(-c4cccnc4N)nc4ccc(-c5ncco5)nc43)ccc21 [Compound 229] | 2850 nM | 95.9 nM
Cn1c(=O)[nH]c2ccc(C(=O)N[C@H]3CCc4cc(-n5c(-c6cccnc6N)nc6ccc(-n7cccn7)nc65)ccc43)cc21 [Compound 230] | 68.2 nM | 13.6 nM
CS(=O)(=O)Nc1ccc(C(=O)N[C@H]2CCc3cc(-n4c(-c5cccnc5N)nc5ccc(-n6cccn6)nc54)ccc32)cn1 [Compound 231] | 3870 nM | 504 nM
CC(=O)Nc1ccc(C(=O)N[C@H]2CCc3cc(-n4c(-c5cccnc5N)nc5ccc(-n6cccn6)nc54)ccc32)cn1 [Compound 232] | 46.6 nM | 13.5 nM
Nc1ncccc1-c1nc2ccc(-n3cccn3)nc2n1-c1ccc2c(c1)CC[C@@H]2NC(=O)c1ccc2[nH]c(=O)sc2c1 [Compound 233] | 24.2 nM | 12.3 nM
Nc1ncccc1-c1nc2ccc(-n3nccn3)nc2n1-c1ccc2c(c1)CC[C@@H]2NCc1ccc(C(F)F)nc1 [Compound 234] | 4550 nM | 168 nM
Nc1ncccc1-c1nc2ccc(-n3cccn3)nc2n1-c1ccc2c(c1)CC[C@@H]2NC(=O)c1ccnc2c1CCC2 [Compound 235] | 111 nM | 22.8 nM
Nc1ncccc1-c1nc2ccc(-n3cccn3)nc2n1-c1ccc2c(c1)CC[C@@H]2NC(=O)c1ccc2nccn2n1 [Compound 236] | 158 nM | 12.1 nM
Nc1ncccc1-c1nc2ccc(-n3cccn3)nc2n1-c1ccc2c(c1)CC[C@@H]2NC(=O)c1ccc2ncnn2c1 [Compound 237] | 28.1 nM | 7.29 nM
Nc1ncccc1-c1nc2ccc(-n3cccn3)nc2n1-c1ccc2c(c1)CC[C@@H]2NC(=O)c1cnc2ccnn2c1 [Compound 238] | 57.7 nM | 9.1 nM
CNS(=O)(=O)c1cccc(C(=O)N[C@H]2CCc3cc(-n4c(-c5cccnc5N)nc5ccc(-n6cccn6)nc54)ccc32)c1 [Compound 239] | 1090 nM | 117 nM
Nc1ncccc1-c1nc2ccc(-n3cccn3)nc2n1-c1ccc2c(c1)CC[C@@H]2NC(=O)c1cccc(CO)c1 [Compound 240] | 59.3 nM | 5.82 nM
COc1ccc(C(=O)N[C@H]2CCc3cc(-n4c(-c5cccnc5N)nc5ccc(-n6cccn6)nc54)ccc32)cc1F [Compound 241] | 15.7 nM | 4.06 nM
Nc1ncccc1-c1nc2ccc(-n3cccn3)nc2n1-c1ccc2c(c1)CC[C@@H]2NC(=O)c1cc2n(n1)CCO2 [Compound 242] | 3220 nM | 70 nM
Cc1cnc(-c2ccc3nc(-c4cccnc4N)n(-c4ccc5c(c4)CC[C@@H]5NC(=O)c4nccnc4C)c3n2)s1 [Compound 243, (S)—N-(5-(2-(2-aminopyridin-3-yl)-5-(5-methylthiazol-2-yl)-3H-imidazo[4,5-b]pyridin-3-yl)-2,3-dihydro-1H-inden-1-yl)-3-methylpyrazine-2-carboxamide] | 8230 nM | 75 nM
Cc1coc(-c2ccc3nc(-c4cccnc4N)n(-c4ccc5c(c4)CC[C@@H]5NC(=O)c4nccnc4C)c3n2)n1 [Compound 244] | > 10000 nM | 221 nM

SMILES | IC50 (AKT2) | IC50 (AKT1 WT)
Cc1coc(-c2ccc3nc(-c4cccnc4N)n(-c4ccc5c(c4)CC[C@@H]5n4ccnn4)c3n2)n1 [Compound 245, (S)-3-(3-(1-(1H-1,2,3-triazol-1-yl)-2,3-dihydro-1H-inden-5-yl)-5-(4-methyloxazol-2-yl)-3H-imidazo[4,5-b]pyridin-2-yl)pyridin-2-amine] | 1960 nM | 41.8 nM
Nc1ncccc1-c1nc2ccc(-c3ncco3)nc2n1-c1ccc2c(c1)CC[C@@H]2n1ccnn1 [Compound 246] | 2370 nM | 65.5 nM
Cn1ncc(-c2ccc3nc(-c4cccnc4N)n(-c4ccc5c(c4)CC[C@@H]5n4ccnn4)c3n2)n1 [Compound 247] | 1570 nM | 60.4 nM
Nc1ncccc1-c1nc2ccc(-n3cccn3)nc2n1-c1ccc2c(c1)CC[C@@H]2n1cnnc1 [Compound 248, (S)-3-(3-(1-(4H-1,2,4-triazol-4-yl)-2,3-dihydro-1H-inden-5-yl)-5-(1H-pyrazol-1-yl)-3H-imidazo[4,5-b]pyridin-2-yl)pyridin-2-amine] | 107 nM | 20.2 nM
Cc1nnn([C@H]2CCc3cc(-n4c(-c5cccnc5N)nc5ccc(-n6cccn6)nc54)ccc32)c1C [Compound 249, (S)-3-(3-(1-(4,5-dimethyl-1H-1,2,3-triazol-1-yl)-2,3-dihydro-1H-inden-5-yl)-5-(1H-pyrazol-1-yl)-3H-imidazo[4,5-b]pyridin-2-yl)pyridin-2-amine] | 368 nM | 21.8 nM
Nc1ncccc1-c1nc2ccc(-n3cccn3)nc2n1-c1ccc2c(c1)CC[C@@H]2n1cc(C2CNC2)nn1 [Compound 250] | > 10000 nM | > 1000 nM
CN1CC(c2cn([C@H]3CCc4cc(-n5c(-c6cccnc6N)nc6ccc(-n7cccn7)nc65)ccc43)nn2)C1 [Compound 251] | 5810 nM | 363 nM
Cc1ncccc1-c1cn([C@H]2CCc3cc(-n4c(-c5cccnc5N)nc5ccc(-n6cccn6)nc54)ccc32)nn1 [Compound 254] | 753 nM | 23.9 nM
Nc1ncccc1-c1nc2ccc(-n3cccn3)nc2n1-c1ccc2c(c1)CC[C@@H]2NC(=O)c1ccn2ccnc2c1 [Compound 255] | 30.4 nM | 3.42 nM
CNC(=O)c1ccc(C(=O)N[C@H]2CCc3cc(-n4c(-c5cccnc5N)nc5ccc(-n6cccn6)nc54)ccc32)cc1 [Compound 256] | 73.8 nM | 5.19 nM
Nc1ncccc1-c1nc2ccc(-n3cccn3)nc2n1-c1ccc2c(c1)CC[C@@H]2NC(=O)c1ccc(O)c(Cl)c1 [Compound 258] | 60.3 nM | 3.06 nM
N#Cc1cc(C(=O)N[C@H]2CCc3cc(-n4c(-c5cccnc5N)nc5ccc(-n6cccn6)nc54)ccc32)ccc1O [Compound 259] | 1210 nM | 204 nM
COc1cc(C(=O)N[C@H]2CCc3cc(-n4c(-c5cccnc5N)nc5ccc(-n6cccn6)nc54)ccc32)ccc1O [Compound 260] | 164 nM | 7.55 nM
Nc1ncccc1-c1nc2ccc(-n3cccn3)nc2n1-c1ccc2c(c1)CC[C@@H]2NC(=O)c1cc(F)c2[nH]ncc2c1 [Compound 261] | 46.7 nM | 4.75 nM
Nc1ncccc1-c1nc2ccc(-n3cccn3)nc2n1-c1ccc2c(c1)CC[C@@H]2NC(=O)c1ccc(Cl)cc1 [Compound 263] | 120 nM | 9.18 nM
Nc1ncccc1-c1nc2ccc(-n3cccn3)nc2n1-c1ccc2c(c1)CC[C@@H]2NC(=O)c1ccc(F)nc1 [Compound 264] | 163 nM | 9.54 nM
CC#Cc1ccc2nc(-c3cccnc3N)n(-c3ccc4c(c3)CC[C@@H]4NC(=O)c3ccc(C)nc3)c2n1 [Compound 265] | 1870 nM | 35.9 nM
Cn1nc(C(=O)N[C@H]2CCc3cc(-n4c(-c5cccnc5N)nc5ccc(-n6cccn6)nc54)ccc32)cc1C(F)F [Compound 266] | 468 nM | 18.3 nM
Cc1ccc(C(=O)N[C@H]2CCc3cc(-n4c(-c5cccnc5N)nc5ccc(-c6nc(C)co6)nc54)ccc32)cn1 [Compound 267] | 286 nM | 14.6 nM
Cc1ccc(C(=O)N[C@H]2CCc3cc(-n4c(-c5cccnc5N)nc5ccc(-c6cnn(C)n6)nc54)ccc32)cn1 [Compound 268] | 100 nM | 7.96 nM
Cc1nccnc1C(=O)N[C@H]1CCc2cc(-n3c(-c4cccnc4N)nc4ccc(-c5cccc(N6CCN(C)CC6)c5)nc43)ccc21 [Compound 269] | 9.39 nM | 3.21 nM
Cc1nccnc1C(=O)N[C@H]1CCc2cc(-n3c(-c4cccnc4N)nc4ccc(-c5ncco5)nc43)ccc21 [Compound 270] | > 10000 nM | 535 nM
Cc1nccnc1C(=O)N[C@H]1CCc2cc(-n3c(-c4cccnc4N)nc4ccc(-c5cnn(C)n5)nc43)ccc21 [Compound 271] | > 10000 nM | 285 nM
Cc1nnc(C)n1[C@H]1CCc2cc(-n3c(-c4cccnc4N)nc4ccc(-n5cccn5)nc43)ccc21 [Compound 272, (S)-3-(3-(1-(3,5-dimethyl-4H-1,2,4-triazol-4-yl)-2,3-dihydro-1H-inden-5-yl)-5-(1H-pyrazol-1-yl)-3H-imidazo[4,5-b]pyridin-2-yl)pyridin-2-amine] | 604 nM | 38.6 nM
